How the values were obtained:
[1] = target: human activated kallikrein enzyme (Homo sapiens, UniProt P03952); assay: Plasma kallikrein inhibition, fluorogenic PFR-AMC substrate, 500 pM activated kallikrein format; type: biochemical; details: 500 pM activated kallikrein, 300 uM PFR-AMC, 30 min preincubation, 10 min reaction; read-out: Primary Dose Response Assay: Average EC50
In short: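 Fluorogenic readout (ex 380 / em 460 nm) after 10 min room-temperature reaction with 300 uM Pro-Phe-Arg-AMC substrate, following 30 min preincubation of inhibitors with 500 pM enzyme. Buffer: Tris pH 7.5, EDTA, NaCl, PEG-400, Triton X-100. Values given as EC50 ranges.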

plasma kallikrein = target: T1, plasma kallikrein (Homo sapiens, UniProt P03952); assay: Neat human plasma assay, FXIIa contact pathway-activated, PFR-AMC substrate; type: biochemical; details: citrated human plasma 78% final, 10 nM human FXIIa, 100 μM PFR-AMC; read-out: Human Plasma Assay: IC90
T1 construct: from tissue
Description: To analyze inhibition of plasma kallikrein in an ex vivo setting, the potency of compounds was measure in contact pathway-activated plasma assays. In a fluorogenic peptide substrate assay, test compounds dissolved in DMSO were added to sodium citrate collected human or rat plasma in a 96-well microplate. Alternatively, citrated plasma was collected from rats administered the compounds orally or by IV. 10 nM of human FXIIa (Enzyme Research Laboratories) diluted in pKal buffer (20 mM Tris-HCl, pH 7.5, 150 mM NaCl, 1 mM EDTA, 0.1% PEG-8000, and 0.1% Triton X-100) was added to the plasma, followed by the 100 μM of the profluorescent, synthetic plasma kallikrein substrate PFR-AMC (also diluted in pKal buffer). Final plasma concentration in the reaction was 78%. Fluorescence was immediately monitored by excitation/emission wavelengths of 360 nm/480 nm respectively over a period of 5 minutes in a microplate reader. The resulting linear increase in fluorescence emission (reflecting pKal proteolysis of PFR-AMC substrate) was fit to extract a proteolytic rate (fluorescent units over time), and this rate was subsequently plotted against compound inhibitor concentration. Resulting plots were fit to a standard 4-parameter IC50/IC90 equation to determine min/max values, IC50/90, and slope. All experimental steps were performed at room temperature. Table 50 provides results of the assay.

human activated kallikrein enzyme, sequence (P03952 391-638 limits assumed): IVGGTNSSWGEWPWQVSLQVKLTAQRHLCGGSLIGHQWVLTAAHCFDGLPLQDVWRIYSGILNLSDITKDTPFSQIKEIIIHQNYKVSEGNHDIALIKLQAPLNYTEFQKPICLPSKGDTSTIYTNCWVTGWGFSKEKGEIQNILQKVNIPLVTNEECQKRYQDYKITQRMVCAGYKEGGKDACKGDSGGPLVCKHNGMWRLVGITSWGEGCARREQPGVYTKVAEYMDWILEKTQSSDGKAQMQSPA
human activated kallikrein enzyme, sequence (P03952 20-390 partner limits assumed): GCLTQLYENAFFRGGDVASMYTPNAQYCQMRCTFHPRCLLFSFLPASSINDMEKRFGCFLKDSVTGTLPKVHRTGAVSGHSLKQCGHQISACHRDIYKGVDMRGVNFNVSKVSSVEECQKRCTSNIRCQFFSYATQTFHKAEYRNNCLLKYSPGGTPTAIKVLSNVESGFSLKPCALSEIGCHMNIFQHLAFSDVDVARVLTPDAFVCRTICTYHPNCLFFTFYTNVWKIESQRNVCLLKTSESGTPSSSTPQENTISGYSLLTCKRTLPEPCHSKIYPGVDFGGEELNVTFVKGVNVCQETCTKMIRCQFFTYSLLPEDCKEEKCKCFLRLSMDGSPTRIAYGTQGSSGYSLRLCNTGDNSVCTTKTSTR
T1 sequence (P03952 391-638 limits assumed): as the sequence (P03952 391-638 limits assumed) above
T1 sequence (P03952 20-390 partner limits assumed): as the sequence (P03952 20-390 partner limits assumed) above

EC50 [1] [nM] | IC90 (plasma kallikrein) [nM] | SMILES
1 to 10 | 10000 to 48000 | Cc1ccnc([C@H]2C[C@@H]2C(=O)Nc2cc(OCc3cn4cc(C5CC5)cc(N5CC(=O)N(CCOCc6ccccc6)C5=O)c4n3)ncn2)n1 (racemic) [Example 31, rac-(1S*,2S*)—N-(6-((8-(3-(2-(benzyloxy)ethyl)-2,4-dioxoimidazolidin-1-yl)-6-cyclopropylimidazo[1,2-a]pyridin-2-yl)methoxy)pyrimidin-4-yl)-2-(4-methylpyrimidin-2-ylcyclopropane-1-carboxamide]
1 to 10 | 400 to 1500 | O=C(Nc1cc(NCc2cn3cc(C4CC4)cc(N4CCN(C5COC5)CC4)c3n2)ncn1)[C@H]1C[C@@H]1c1cccc(Cl)c1 [Example I-202, (1S,2S)-2-(3-chlorophenyl)-N-(6-(((6-cyclopropyl-8-(4-(oxetan-3-yl)piperazin-1-yl)imidazo[1,2-a]pyridin-2-yl)methyl)amino)pyrimidin-4-yl)cyclopropane-1-carboxamide]
1 to 10 | 1500 to 10000 | CS(=O)(=O)c1cc(C2CC2)cn2cc(CNc3cc(NC(=O)[C@H]4C[C@@H]4c4cccc(Cl)c4)ncn3)nc12 [Example I-162, (1S,2S)-2-(3-chlorophenyl)-N-(6-(((6-cyclopropyl-8-(methylsulfonyl)imidazo[1,2-a]pyridin-2-yl)methyl)amino)pyrimidin-4-yl)cyclopropane-1-carboxamide]
1 to 10 | 1500 to 10000 | CN1CCN(c2cc(C3CC3)cn3cc(CNc4cc(NC(=O)[C@H]5C[C@@H]5c5cccc(Cl)c5)ncn4)nc23)CC1=O [Example I-153, (1S,2S)-2-(3-chlorophenyl)-N-(6-(((6-cyclopropyl-8-(4-methyl-3-oxopiperazin-1-yl)imidazo[1,2-a]pyridin-2-yl)methyl)amino)pyrimidin-4-yl)cyclopropane-1-carboxamide]
< 1 | 400 to 1500 | O=C(Nc1cc(NCc2cn3cc(C4CC4)cc(C4(F)CNC4)c3n2)ccn1)[C@H]1C[C@@H]1c1cccc(Cl)c1 [Example 133, (1S,2S)-2-(3-chlorophenyl)-N-(4-(((6-cyclopropyl-8-(3-fluoroazetidin-3-yl)imidazo[1,2-a]pyridin-2-yl)methyl)amino)pyridin-2-yl)cyclopropane-1-carboxamide]
< 1 | 400 to 1500 | Cc1ccnc([C@H]2C[C@@H]2C(=O)Nc2cc(NCc3cn4cc(C5CC5)cc(-n5c(=O)n(C)c(=O)n5C)c4n3)ncn2)n1 [Example 367, (1S,2S)-N-(6-(((6-cyclopropyl-8-(2,4-dimethyl-3,5-dioxo-1,2,4-triazolidin-1-yl)imidazo[1,2-a]pyridin-2-yl)methyl)amino)pyrimidin-4-yl)-2-(4-methylpyrimidin-2-yl)cyclopropane-1-carboxamide]
< 1 | 1500 to 10000 | O=C(Nc1nc(O)nc(NCc2cn3cc(C4CC4)ccc3n2)n1)[C@H]1C[C@@H]1c1cccc(Cl)c1 [Example 295, (1S,2S)-2-(3-chlorophenyl)-N-(4-(((6-cyclopropylimidazo[1,2-a]pyridin-2-yl)methyl)amino)-6-hydroxy-1,3,5-triazin-2-yl)cyclopropane-1-carboxamide]
< 1 | < 400 | Cc1ccnc([C@H]2C[C@@H]2C(=O)Nc2cc(NCc3cn4cc(C5CC5)cc(N5CC(=O)N(C)C5=O)c4n3)cnn2)n1 (racemic) [Example 617, rac-(1S*,2S*)—N-(5-(((6-cyclopropyl-8-(3-methyl-2,4-dioxoimidazolidin-1-yl)imidazo[1,2-a]pyridin-2-yl)methyl)amino)pyridazin-3-yl)-2-(4-methylpyrimidin-2-yl)cyclopropane-1-carboxamide]
< 1 | 1500 to 10000 | O=C(Nc1cc(NCc2cn3cc(C4CC4)cc(N4CC(=O)N(C5CC5)C4=O)c3n2)ccn1)[C@H]1C[C@@H]1c1cccc(Cl)c1 [Example 513, (1S,2S)-2-(3-chlorophenyl)-N-(4-(((6-cyclopropyl-8-(3-cyclopropyl-2,4-dioxoimidazolidin-1-yl)imidazo[1,2-a]pyridin-2-yl)methyl)amino)pyridin-2-yl)cyclopropane-1-carboxamide]
< 1 | – | Cc1ccnc(C2CC2C(=O)Nc2cc(OCc3cn4cc(C5CC5)cc(N5CC(=O)N(C)C5=O)c4n3)c(C(F)(F)F)nn2)n1 (centres unmarked) [Example 666, N-(5-((6-cyclopropyl-8-(3-methyl-2,4-dioxoimidazolidin-1-yl)imidazo[1,2-a]pyridin-2-yl)methoxy)-6-(trifluoromethyl)pyridazin-3-yl)-2-(4-methylpyrimidin-2-yl)cyclopropane-1-carboxamide]
10 to 100 | – | Cc1ccnc([C@H]2C[C@@H]2C(=O)Nc2cc(OCc3ccccc3)cc(OCc3cn4cc(C5CC5)cc(N5CC(=O)N(C)C5=O)c4n3)n2)n1 [Example 660, (1S,2S)—N-(4-(benzyloxy)-6-((6-cyclopropyl-8-(3-methyl-2,4-dioxoimidazolidin-1-yl)imidazo[1,2-a]pyridin-2-yl)methoxy)pyridin-2-yl)-2-(4-methylpyrimidin-2-yl)cyclopropane-1-carboxamide]
1 to 10 | – | O=C(Nc1cc(NCc2cn3cc(C4CC4)cc(N4CCN(CC(F)(F)F)CC4)c3n2)ccn1)[C@H]1C[C@@H]1c1cccc(Cl)c1 (racemic) [Example I-20]
100 to 1000 | – | Cc1ccnc([C@@H]2C[C@H]2C(=O)Nc2cc(OCc3cn4cc(C5CC5)cc(N5CC(=O)N(C)C5=O)c4n3)ncn2)n1 (single isomer, unassigned) [Example 29]
1000 to 6000 | – | O=C(Nc1cc(NCc2cn3cc(C4CC4)ccc3n2)ccn1)[C@@H]1C[C@]12CCc1ccc(Cl)cc12 (relative stereo) [Example I-272, rac-(1S*,2S*)-6′-chloro-N-(4-(((6-cyclopropylimidazo[1,2-a]pyridin-2-yl)methyl)amino)pyridin-2-yl)-2′,3′-dihydrospiro[cyclopropane-1,1′-indene]-2-carboxamide]
10 to 100 | – | Cc1ccnc([C@H]2C[C@@H]2C(=O)Nc2cc(N[C@@H](C)c3cn4cc(C5CC5)cc(N5CC(=O)N(C)C5=O)c4n3)nc(C)n2)n1 [Example 455, (1S,2S)—N-(6S-((1-(6-cyclopropyl-8-(3-methyl-2,4-dioxoimidazolidin-1-yl)imidazo[1,2-a]pyridin-2-yl)ethyl)amino)-2-methylpyrimidin-4-yl)-2-(4-methylpyrimidin-2-yl)cyclopropane-1-carboxamide]
1 to 10 | – | O=C(Nc1cc(NCc2cn3cc(C4CC4)ccc3n2)ncn1)[C@H]1C[C@@H]1c1cc(Cl)ccn1 (racemic) [Example I-265, rac-(1S*,2S*)-2-(4-chloropyridin-2-yl)-N-(6-(((6-cyclopropylimidazo[1,2-a]pyridin-2-yl)methyl)amino)pyrimidin-4-yl)cyclopropane-1-carboxamide]
10 to 100 | – | O=C(Nc1cc(NCc2cn3cc(C4CC4)ccc3n2)ncn1)[C@H]1C[C@@H]1c1ncn2ccc(Cl)c(F)c12 (racemic) [Example 504, rac-(1S*,2S*)-2-(7-chloro-8-fluoroimidazo[1,5-a]pyridin-1-yl)-N-(6-(((6-cyclopropylimidazo[1,2-a]pyridin-2-yl)methyl)amino)pyrimidin-4-yl)cyclopropane-1-carboxamide]

From patent US20240228488A1 (TAKEDA PHARMACEUTICAL COMPANY LIMITED, priority 2021, published 2024)
